Experimental data as given in patent US20240301409A1, “Chemically Modified Small Activating RNA” (RACTIGEN THERAPEUTICS, priority 2021, published 2024).
Oligonucleotides are written 5' to 3', each unit as a sugar letter and its base; * is a phosphorothioate linkage, no mark a phosphodiester; rarer units and linkages stand in square brackets, end groups in braces. Plain capitals give the bases only. m = 2'-O-methyl; r = 2'-OH (RNA); f = 2'-fluoro

Tests used:
[1] = molecular target: T1, RNase A (Bos taurus, UniProt P61823); experiment: saRNA stability analysis in the presence of RNase A (agarose gel); details: incubation 0 to 96 hours
T1 sequence (P61823 27-150): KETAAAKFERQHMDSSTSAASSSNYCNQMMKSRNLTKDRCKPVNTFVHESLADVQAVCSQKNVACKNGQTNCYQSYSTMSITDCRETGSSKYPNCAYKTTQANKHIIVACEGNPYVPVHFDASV
Experimental: The duplexes obtained at each time point above were each added to 1 μL of 10× loading buffer, and then frozen in liquid nitrogen. After incubation, all samples were detected for the double-stranded RNA by 4% agarose gel electrophoresis, and the content of each duplex was analyzed by Image J software.
The duplexes obtained at each time point indicated above were each added to 1 μL of 10× loading buffer, and then frozen in liquid nitrogen. After incubation, all samples were detected for the double-stranded RNA by 4% agarose gel electrophoresis, and the content of each duplex was analyzed by Image J software.
saRNA (1.5 μL, 10 μM) was incubated at a final concentration of 0.02 mg/mL in PBS in the presence of RNase A (Amresco, OH, USA) at 37° C. for different durations. At the end of the incubation, the mixture was snap frozen in liquid nitrogen to stop nuclease activity. Samples were analyzed on a 4% agarose gel and examined for duplex degradation.
All chemically modified duplexes (Rag1-40-1 to Rag1-40-32) were incubated with 0.02 μg/L of RNase A for different durations (0 to 96 hours). At the end of the incubation, the size and amount of duplexes were detected by agarose gel electrophoresis.

[2] = test system: TNF-α; experiment: PBMC cytokine release assay, TNF-α (ELISA); format: cell-based, human; details: 10 nM, 24 hours
Experimental: Data represent mean±SD of two independent experiments. […] The values below the line indicate suppressed activities.
Each treatment group was analyzed in triplicate.

[3] = test system: Rag1-40 target sequence in the 3′ UTR of firefly luciferase, COS-1 cells; experiment: Analysis of off-target effects (pOff-Target dual luciferase reporter in COS-1 cells); details: lysed 48 hours after transfection, luciferase activity
Experimental: A 26 bp fragment comprising the target site of Rag1-40 was cloned in the antisense orientation into the 3′ UTR region of the firefly luciferase gene in a pmirGLO dual luciferase vector. Vector plasmids were co-transfected with the indicated saRNAs into COS-1 cells. Cells were lysed 48 hours after transfection, and the resulting lysates were assessed for luciferase activity. Data represent mean±SD of at least two independent experiments. Dashed line represents comparisons to blank control (top dashed line) and Rag1-40 (bottom dashed line). Values close to the top dashed line indicate no off-target effect.
A 26 bp fragment comprising the Rag1-40 target sequence was cloned in the antisense orientation into a multiple cloning site (MCS) of the 3′ untranslated region of firefly luciferase of the pmirGLO dual luciferase vector (Promega, Fitchburg, WI), to obtain pOff-Target plasmid. Following E. coli transformation and overnight incubation, plasmids for each construct were prepared by standard method. Each plasmid was transfected into COS-1 monkey kidney epithelial cells using Lipofectamine 3000 (Invitrogen, Carlsbad, CA). Subsequently, saRNA was transfected using RNAiMAX. After 24 hours of incubation, COS-1 cells were lysed with 1× lysis buffer, and luciferase activity was measured using dual luciferase reporter gene assay system (Promega, WI, USA) following manufacturer's instructions.
To assess the off-target effects of unmodified and modified saRNAs, a sequence complementary to the sense oligonucleotide strand of Rag1-40 was cloned into the 3′UTR region of the luciferase gene in a pmirGLO dual luciferase vector. The vector plasmid was co-transfected with the saRNA into COS-1 cells. Cells were lysed 48 hours after transfection and the resulting lysates were assessed for luciferase activity.

[4] = Stability of RNA duplex in human urine (agarose gel); details: 37° C.
Experimental: Double-stranded RNA (7.5 μL, 10 μM) diluted in 17.5 μL PBS was incubated with 25 μL human fresh urine at 37° C. for 0, 1, 24 and 48 hours, respectively. The duplexes obtained at each time point indicated above were each added to 1 μL of 10× loading buffer, and then frozen in liquid nitrogen. After incubation, all samples were detected for the double-stranded RNA by 4% agarose gel electrophoresis, and the content of each duplex was analyzed by Image J software.
To further test the stability of the chemically modified double-stranded saRNA in human urine, the duplexes were incubated in urine for different durations ranging from 0 to 48 hours.

[5] = test system: INF-α; experiment: PBMC cytokine release assay, INF-α (ELISA); details: PBMC, 10 nM, 24 hours
Experimental: Cells were treated with the indicated duplexes at a final concentration of 10 nM or lipopolysaccharide (LPS) as a positive control for 24 hours, respectively. The levels of INF-α and TNF-α in the cell supernatant were detected by ELISA kit. […] Data represent mean±SD of two independent experiments.
Human peripheral blood mononuclear cells (Allcells, Alameda, CA) were seeded in a 96-well microplate at a density of approximately 10×10^4 cells/well. Transfection of dsRNA was performed using RNAiMAX (Invitrogen, Carlsbad, CA) following manufacturer's instructions. Supernatants were collected 24 hours after transfection and immediately assayed for IFN-α and TNF-α production using ELISA kit (R&D Systems). Each treatment group was analyzed in triplicate.
To assess the immunostimulatory effect of chemically modified saRNAs, human peripheral blood mononuclear cells (PBMC) from healthy donors were incubated with the double-stranded saRNAs, and INF-α and TNF-α levels in the supernatant of treated cells after 24 hours were measured.

| Substance | degradation of duplex at 96 hours [1] | immunostimulatory effect (TNF-α induction) compared with Rag1-40, in words [2] | off-target effect compared to unmodified Rag1-40, in words [3] | degradation of duplex at 48 hours [4] | immunostimulatory activity (INF-α) compared with Rag1-40, in words [5] |
| --- | --- | --- | --- | --- | --- |
| Rag1-40-3: saRNA duplex: sense mCmCAACUCAUUCUCCAAGmUmC (SEQ ID NO 5); antisense fUmAfCfUfUmGmGmAmGmAmAfUmGmAmGfUfUmGmGfCmA (SEQ ID NO 8) (sense mCmCrArArCrUrCrArUrUrCrUrCrCrArArGmUmC) | little or no signs of degradation | unchanged immunostimulatory activity | completely inhibited | – | – |
| Rag1-40-17: saRNA duplex: sense mCmCAACUCAUUCUCCAAG*U*C (SEQ ID NO 15); antisense fUAfCfUfUGGAGAAfUGAGfUfUGGfCA (SEQ ID NO 6) (sense CCAACUCAUUCUCCAAGUC; antisense UACUUGGAGAAUGAGUUGGCA; 2'-OMe, 2'-F, phosphorothioates; modified_base (1)..(2) (1,2)=2′-O-methyl(2′-OMe); modified_base (17)..(19) (17,18,19)=phosphorothioate (PS) backbone modification; modified_base (1)..(20) (1,3,4,5,12,16,17,20)=2′-fluoro) | little or no signs of degradation | – | mitigated or similar off-target effects | no sign of degradation | – |
| Rag1-40-25: saRNA duplex: sense fCfCAACUCAUUCUCCAAG*U*C (SEQ ID NO 16); antisense fUAfCfUfUGGAGAAfUGAGfUfUGGfCA (SEQ ID NO 6) (sense CCAACUCAUUCUCCAAGUC; antisense UACUUGGAGAAUGAGUUGGCA; 2'-F, phosphorothioates; modified_base (1)..(2) (1,2)=2′-fluoro; modified_base (17)..(19) (17,18,19)=phosphorothioate (PS) backbone modification; modified_base (1)..(20) (1,3,4,5,12,16,17,20)=2′-fluoro) | little or no signs of degradation | – | mitigated or similar off-target effects | no sign of degradation | – |
| Rag1-40-29: saRNA duplex: sense fCfCAACUCAUUCUCCAAG*U*C (SEQ ID NO 16); antisense UACUfUGGAGAAfUGAGUfUGG*fC*A (SEQ ID NO 10) (sense CCAACUCAUUCUCCAAGUC; antisense UACUUGGAGAAUGAGUUGGCA; 2'-F, phosphorothioates; modified_base (1)..(2) (1,2)=2′-fluoro; modified_base (17)..(19) (17,18,19)=phosphorothioate (PS) backbone modification; modified_base (5)..(20) (5,12,17,20)=2′-fluoro; modified_base (19)..(21) (19,20,21)=phosphorothioate (PS) backbone modification) | – | – | mitigated or similar off-target effects | mostly degraded | reduced immunostimulatory activity |
